# From US20260184687A1, “DIHYDROINDENE DERIVATIVES AS MALT1 INHIBITORS” (C4X Discovery Limited, priority 2022, published 2026)
# Columns and labels:
# FL hMALT1 enzyme = biological target: T1, FL hMALT1 enzyme (Homo sapiens, UniProt Q9UDY8); test: biochemical;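 also: Cell-free protease assay: enzyme preincubated with compound 30 min at room temperature, then cleavage of fluorogenic Ac-LVSR-AMC substrate (100 µM) tracked by fluorescence (ex 360/em 460 nm)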
# T1 sequence (Q9UDY8 1-824): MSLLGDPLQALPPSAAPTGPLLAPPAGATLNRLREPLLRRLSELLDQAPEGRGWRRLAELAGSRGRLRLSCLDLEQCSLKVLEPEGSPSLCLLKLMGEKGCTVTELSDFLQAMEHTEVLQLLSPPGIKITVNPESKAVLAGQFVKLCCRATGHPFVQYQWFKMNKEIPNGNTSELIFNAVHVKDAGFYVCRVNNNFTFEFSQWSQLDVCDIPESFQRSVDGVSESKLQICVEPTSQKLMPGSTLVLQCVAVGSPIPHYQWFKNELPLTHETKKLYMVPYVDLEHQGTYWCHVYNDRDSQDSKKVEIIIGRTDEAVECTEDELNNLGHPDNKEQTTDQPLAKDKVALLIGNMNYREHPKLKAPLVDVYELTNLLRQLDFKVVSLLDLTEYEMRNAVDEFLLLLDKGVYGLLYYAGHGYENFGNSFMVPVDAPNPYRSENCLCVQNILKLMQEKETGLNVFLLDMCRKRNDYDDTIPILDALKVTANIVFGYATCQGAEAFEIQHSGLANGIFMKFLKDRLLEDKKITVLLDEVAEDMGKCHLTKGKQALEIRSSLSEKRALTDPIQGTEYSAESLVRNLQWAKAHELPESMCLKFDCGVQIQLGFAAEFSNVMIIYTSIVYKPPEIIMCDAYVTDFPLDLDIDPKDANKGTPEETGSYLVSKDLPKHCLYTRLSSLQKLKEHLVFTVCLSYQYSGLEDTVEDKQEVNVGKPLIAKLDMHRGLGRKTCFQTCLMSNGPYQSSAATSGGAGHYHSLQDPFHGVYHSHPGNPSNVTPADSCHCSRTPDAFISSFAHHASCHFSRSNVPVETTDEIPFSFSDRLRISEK
# [1] = system: IL-2 release from stimulated Jurkat cells; test: Human IL-2 Release Phenotypic Assay (Assay 3); format: cell-based; details: Jurkat cells (clone E6-1), 200 ng/mL PMA + 300 ng/mL ionomycin, IL-2 by ELISA
# Description: This assay measured the inhibition by MALT1 inhibitors of the IL-2 release from stimulated Jurkat cells, a human immortalized T lymphocyte cell line. IL-2 production from Jurkat cells is regulated by activation of NFκB signalling, which is in turn regulated by MALT1 protease activity.
# Jurkat cells (clone E6-1, ATCC) were cultured in RPMI1640 supplemented with 10% (v/v) FBS and 1% (v/v) penicillin/streptomycin (100× liquid stocks). Cells were seeded in 96-well white tissue culture-treated plates (Perkin Elmer) at 50 000 cells/well and incubated overnight at 37° C., 5% CO2. Test compounds in DMSO at half-log dilutions were added to the cells and incubated for 30 mins. Final DMSO concentration was 0.5%. Cells were then stimulated with 200 ng/mL PMA+300 ng/mL ionomycin and incubated for 48 hours. […] IC50 values were calculated using GraphPad Prism using 4-parameter non-linear regression curve fit.
Structure (SMILES),IC50 (FL hMALT1 enzyme),IC50 ([1]; 48 hours),"IC50 ([1]; Homo sapiens, Jurkat, 48 h)"
"CN(C(=O)C1CNC(=O)O1)[C@@H](c1ccc(N[C@@H]2Cc3ccccc3C2(C)C)cn1)C(F)(F)F (single isomer, unassigned) [Example 108]",150 nM,900 nM,
"CN(C(=O)C1CNC(=O)O1)[C@@H](c1ccc(N[C@@H]2Cc3ccccc3C2(C)C)cn1)C(F)(F)F (single isomer, unassigned) [Example 109]",760 nM,900 nM,
"CN(C(=O)C1CNC(=O)O1)[C@@H](c1ccc(N[C@@H]2Cc3ccccc3C2(C)C)cn1)C(F)(F)F (single isomer, unassigned) [Example 110]",16 nM,149 nM,
"CN(C(=O)C1CNC(=O)O1)[C@@H](c1ccc(N[C@@H]2Cc3ccccc3C2(C)C)cn1)C(F)(F)F (single isomer, unassigned) [Example 111]",52 nM,650 nM,
"CC(=O)N[C@H]1C[C@H](C(=O)N(C)[C@@H](c2ccc(N[C@H]3Cc4ccccc4C3(C)C)cn2)C(F)(F)F)C1 [Example 186, (1,3-trans)-3-Acetamido-N—((S)-1-(5-(((S)-1,1-dimethyl-2,3-dihydro-1H-inden-2-yl)amino)pyridin-2-yl)-2,2,2-trifluoroethyl)-N-methylcyclobutane-1-carboxamide]",,,460 nM
"CN(C(=O)CC1CCS(=O)(=O)CC1)[C@@H](c1ccc(N[C@H]2Cc3ccccc3C2(C)C)cn1)C(F)(F)F [Example 196, N—((S)-1-(5-(((S)-1,1-Dimethyl-2,3-dihydro-1H-inden-2-yl)amino)pyridin-2-yl)-2,2,2-trifluoroethyl)-2-(1,1-dioxidotetrahydro-2H-thiopyran-4-yl)-N-methylacetamide]",,,860 nM
"CN(C(=O)[C@@H]1CCC(=O)NC1)[C@@H](c1ccc(N[C@H]2Cc3ccccc3C2(C)C)nc1)C(F)(F)F [Example 218, (R)—N—((S)-1-(6-(((S)-1,1-dimethyl-2,3-dihydro-1H-inden-2-yl)amino)pyridin-3-yl)-2,2,2-trifluoroethyl)-N-methyl-6-oxopiperidine-3-carboxamide]",,,430 nM
CN(C(=O)[C@H]1CCC(=O)NC1)[C@@H](c1ccc(N[C@H]2Cc3ccccc3C2(C)C)nc1)C(F)(F)F [Example 219],,,330 nM
"CNC(=O)[C@H]1C[C@@H](C(=O)N(C)[C@@H](c2ccc(N[C@H]3Cc4ccccc4C3(C)C)cn2)C(F)(F)F)C1 [Example 240, (1,3-cis)-N^1—((S)-1-(5-(((S)-1,1-Dimethyl-2,3-dihydro-1H-inden-2-yl)amino)pyridin-2-yl)-2,2,2-trifluoroethyl)-N^1,N^3-dimethylcyclobutane-1,3-dicarboxamide]",,,330 nM
"CNC(=O)[C@H]1C[C@H](C(=O)N(C)[C@@H](c2ccc(N[C@H]3Cc4ccccc4C3(C)C)cn2)C(F)(F)F)C1 [Example 247, (1,3-trans)-N—((S)-1-(5-(((S)-1,1-Dimethyl-2,3-dihydro-1H-inden-2-yl)amino)pyridin-2-yl)-2,2,2-trifluoroethyl)-N^1,N^3-dimethylcyclobutane-1,3-dicarboxamide]",,,170 nM
"Cc1cc2c(cc1C)CC(Nc1ccc([C@H](N(C)C(=O)C3CCS(=O)(=O)CC3)C(F)(F)F)nc1)C2 [Example 260, (S)—N-(1-(5-((5,6-Dimethyl-2,3-dihydro-1H-inden-2-yl)amino)pyridin-2-yl)-2,2,2-trifluoroethyl)-N-methyltetrahydro-2H-thiopyran-4-carboxamide 1,1-dioxide]",,,860 nM
"CN(C(=O)[C@@H]1CNC(=O)C1)[C@@H](c1ccc(N[C@H]2Cc3ccc(Cl)cc3C2)cn1)C(F)(F)F [Example 300, (S)—N—((S)-1-(5-(((S)-5-Chloro-2,3-dihydro-1H-inden-2-yl)amino)pyridin-2-yl)-2,2,2-trifluoroethyl)-N-methyl-5-oxopyrrolidine-3-carboxamide]",,,350 nM

# Continued, values first:
IC50 (FL hMALT1 enzyme),IC50 ([1]; 48 hours),"IC50 ([1]; Homo sapiens, Jurkat, 48 h)",Structure (SMILES)
140 nM,2700 nM,,"CN(C(=O)C1CCC(=O)NC1)[C@@H](c1ccc(NC2Cc3ccccc3C2(C)C)cn1)C(F)(F)F (single isomer, unassigned) [Example 104]"
36 nM,230 nM,,"CN(C(=O)C1CCC(=O)NC1)[C@@H](c1ccc(NC2Cc3ccccc3C2(C)C)cn1)C(F)(F)F (single isomer, unassigned) [Example 105]"
130 nM,540 nM,,"CN(C(=O)C1CCC(=O)NC1)[C@@H](c1ccc(NC2Cc3ccccc3C2(C)C)cn1)C(F)(F)F (single isomer, unassigned) [Example 106]"
45 nM,410 nM,,"CN(C(=O)C1CCC(=O)NC1)[C@@H](c1ccc(NC2Cc3ccccc3C2(C)C)cn1)C(F)(F)F (single isomer, unassigned) [Example 107]"
230 nM,,430 nM,"CN(C(=O)[C@H]1C[C@H](N(C)C)C1)[C@@H](c1ccc(NC2Cc3ccccc3C2(C)C)cn1)C(F)(F)F (single isomer, unassigned) [Example 112]"
,,440 nM,"CC(=O)N1CC[C@@H](C(=O)N(C)[C@@H](c2ccc(N[C@H]3Cc4ccccc4C3(C)C)cn2)C(F)(F)F)C1 [Example 192, (R)-1-Acetyl-N—((S)-1-(5-(((S)-1,1-dimethyl-2,3-dihydro-1H-inden-2-yl)amino)pyridin-2-yl)-2,2,2-trifluoroethyl)-N-methylpyrrolidine-3-carboxamide]"
,,260 nM,"CN(C(=O)[C@H]1C[C@H](NS(C)(=O)=O)C1)[C@@H](c1ccc(N[C@H]2Cc3ccccc3C2(C)C)cn1)C(F)(F)F [Example 222, (1,3-trans)-N—((S)-1-(5-(((S)-1,1-Dimethyl-2,3-dihydro-1H-inden-2-yl)amino)pyridin-2-yl)-2,2,2-trifluoroethyl)-N-methyl-3-(methylsulfonamido)cyclobutane-1-carboxamide]"
,,150 nM,"CN(C(=O)C1CCN(S(C)(=O)=O)CC1)[C@@H](c1ccc(N[C@H]2Cc3ccccc3C2(C)C)cn1)C(F)(F)F [Example 223, N—((S)-1-(5-(((S)-1,1-Dimethyl-2,3-dihydro-1H-inden-2-yl)amino)pyridin-2-yl)-2,2,2-trifluoroethyl)-N-methyl-1-(methylsulfonyl)piperidine-4-carboxamide]"
,,200 nM,"CC(=O)N1CCC(C(=O)N(C)[C@@H](c2ccc(N[C@H]3Cc4ccccc4C3(C)C)cn2)C(F)(F)F)CC1 [Example 224, 1-Acetyl-N—((S)-1-(5-(((S)-1,1-dimethyl-2,3-dihydro-1H-inden-2-yl)amino)pyridin-2-yl)-2,2,2-trifluoroethyl)-N-methylpiperidine-4-carboxamide]"
,,400 nM,"CN(C(=O)[C@H]1C[C@@H](NS(C)(=O)=O)C1)[C@@H](c1ccc(N[C@H]2Cc3ccccc3C2(C)C)cn1)C(F)(F)F [Example 241, (1,3-cis)-N—((S)-1-(5-(((S)-1,1-Dimethyl-2,3-dihydro-1H-inden-2-yl)amino)pyridin-2-yl)-2,2,2-trifluoroethyl)-N-methyl-3-(methylsulfonamido)cyclobutane-1-carboxamide]"
,,270 nM,"CN(C(=O)[C@@H]1C[C@@H](O)CN1S(C)(=O)=O)[C@@H](c1ccc(N[C@H]2Cc3ccccc3C2(C)C)cn1)C(F)(F)F [Example 244, (2S,4R)—N—((S)-1-(5-(((S)-1,1-Dimethyl-2,3-dihydro-1H-inden-2-yl)amino)pyridin-2-yl)-2,2,2-trifluoroethyl)-4-hydroxy-N-methyl-1-(methylsulfonyl)pyrrolidine-2-carboxamide]"
